Laboratory results taken from patent US11135234B2, “Effective aminoglycoside antibiotic for multidrug-resistant bacteria” (MICROBIAL CHEMISTRY RESEARCH FOUNDATION, priority 2015, dated 2021).
In brackets after ≈: the same amount, converted by molar mass.

Columns and labels:
S. aureus RN4220 = assay: MIC, agar plate dilution method, S. aureus RN4220; type: cell-based, Staphylococcus aureus; settings: for minimal inhibitory concentration (MIC): S. aureus RN4220, Sensitive bacterium; for MIC: Staphylococcus aureus, RN4220, S. aureus RN4220, Sensitive bacterium, read-out: minimal inhibitory concentration (MIC)
Outline: (§1)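 Minimal inhibitory concentration (μg/mL) was determined by agar plate dilution following the Japan Society of Chemotherapy method.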

S. aureus RN4220/pMS520 = assay: MIC, agar plate dilution method, S. aureus RN4220/pMS520; type: cell-based, Staphylococcus aureus; settings: for minimal inhibitory concentration (MIC): S. aureus RN4220/pMS520, MRSA; for MIC: Staphylococcus aureus, MRSA, read-out: minimal inhibitory concentration (MIC), S. aureus RN4220/pMS520, MRSA
Outline: as §1

S. aureus MF490 = assay: MIC, agar plate dilution method, S. aureus MF490; type: cell-based, Staphylococcus aureus; settings: for minimal inhibitory concentration (MIC): S. aureus MF490, MRSA; for MIC: Staphylococcus aureus, MRSA, read-out: minimal inhibitory concentration (MIC)
Outline: as §1

E. faecium ATCC19434 = assay: MIC, agar plate dilution method, E. faecium ATCC19434; type: cell-based, Enterococcus faecium; settings: for minimal inhibitory concentration (MIC): E. faecium ATCC19434; for MIC: Enterococcus faecium, ATCC19434, E. faecium ATCC19434, read-out: minimal inhibitory concentration (MIC)
Outline: as §1

E. coli JM109/pMW218 = assay: MIC, agar plate dilution method, E. coli JM109/pMW218; type: cell-based, Escherichia coli; settings: for minimal inhibitory concentration (MIC): E. coli JM109/pMW218, Sensitive bacterium; for MIC: Escherichia coli, JM109/PMW218, E. coli JM109/pMW218, Sensitive bacterium, read-out: minimal inhibitory concentration (MIC)
Outline: as §1

[1] = system: K. pneumoniae ATCC BAA-1705; assay: MIC, agar plate dilution method, K. pneumoniae ATCC BAA-1705; type: cell-based, Klebsiella pneumoniae; settings: for minimal inhibitory concentration (MIC): K. pneumoniae ATCC BAA-1705, KPC-producing strain; for MIC: Klebsiella pneumoniae, ATCCBAA1705, K. pneumoniae ATCC BAA-1705, KPC-producing strain, read-out: minimal inhibitory concentration (MIC)
Outline: as §1

[2] = system: K. pneumoniae ATCC BAA-2146; assay: MIC, agar plate dilution method, K. pneumoniae ATCC BAA-2146; type: cell-based, Klebsiella pneumoniae; settings: for minimal inhibitory concentration (MIC): K. pneumoniae ATCC BAA-2146, NDM-producing strain; for MIC: Klebsiella pneumoniae, ATCCBAA2146, K. pneumoniae ATCC BAA-2146, NDM-producing strain, read-out: minimal inhibitory concentration (MIC)
Outline: as §1

[3] = system: A. baumannii ATCC BAA-1710; assay: MIC, agar plate dilution method, A. baumannii ATCC BAA-1710; type: cell-based, Acinetobacter baumannii; settings: for minimal inhibitory concentration (MIC): A. baumannii ATCC BAA-1710, MDRA; for MIC: Acinetobacter baumannii, ATCCBAA1710, A. baumannii ATCC BAA-1710, MDRA, read-out: minimal inhibitory concentration (MIC)
Outline: as §1

S. marcescens TH-0447 = assay: MIC, agar plate dilution method, S. marcescens TH-0447; type: cell-based, Serratia marcescens; settings: for minimal inhibitory concentration (MIC): S. marcescens TH-0447, AMK-resistant; for MIC: Serratia marcescens, TH0447, S. marcescens TH-0447, AMK-resistant, read-out: minimal inhibitory concentration (MIC)
Outline: as §1

S. marcescens GN6944 = assay: MIC, agar plate dilution method, S. marcescens GN6944; type: cell-based, Serratia marcescens; settings: S. marcescens GN6944, GM-resistant; for MIC: Serratia marcescens, read-out: minimal inhibitory concentration (MIC)
Outline: as §1

P. aeruginosa PAO1 = assay: MIC, agar plate dilution method, P. aeruginosa PAO1; type: cell-based, Pseudomonas aeruginosa; settings: for minimal inhibitory concentration (MIC): P. aeruginosa PAO1, Sensitive bacterium; for MIC: Pseudomonas aeruginosa, PAO1, P. aeruginosa PAO1, Sensitive bacterium, read-out: minimal inhibitory concentration (MIC)
Outline: as §1

P. aeruginosa PAO1/GN315 = assay: MIC, agar plate dilution method, P. aeruginosa PAO1/GN315; type: cell-based, Pseudomonas aeruginosa; settings: for minimal inhibitory concentration (MIC): P. aeruginosa PAO1/GN315, AMK-resistant; for MIC: Pseudomonas aeruginosa, read-out: minimal inhibitory concentration (MIC), P. aeruginosa PAO1/GN315, AMK-resistant
Outline: as §1

P. aeruginosa MSC17707 = assay: MIC, agar plate dilution method, P. aeruginosa MSC17707; type: cell-based, Pseudomonas aeruginosa; settings: for minimal inhibitory concentration (MIC): P. aeruginosa MSC17707, AMK-resistant; for MIC: Pseudomonas aeruginosa, MSC17707, P. aeruginosa MSC17707, AMK-resistant, read-out: minimal inhibitory concentration (MIC)
Outline: as §1

P. aeruginosa MSC01035 = assay: MIC, agar plate dilution method, P. aeruginosa MSC01035; type: cell-based, Pseudomonas aeruginosa; settings: P. aeruginosa MSC01035, ABK-resistant; for MIC: Pseudomonas aeruginosa, read-out: minimal inhibitory concentration (MIC)
Outline: as §1

Row | SMILES | minimal inhibitory concentration (MIC) (S. aureus RN4220) [µg/mL] | minimal inhibitory concentration (MIC) (S. aureus RN4220/pMS520) [µg/mL] | minimal inhibitory concentration (MIC) (S. aureus MF490) [µg/mL] | minimal inhibitory concentration (MIC) (E. faecium ATCC19434) [µg/mL] | minimal inhibitory concentration (MIC) (E. coli JM109/pMW218) [µg/mL] | minimal inhibitory concentration (MIC) [1] [µg/mL] | MIC (S. aureus RN4220) [µg/mL] | MIC (S. aureus RN4220/pMS520) [µg/mL] | MIC (S. aureus MF490) [µg/mL] | MIC (E. faecium ATCC19434) [µg/mL] | MIC (E. coli JM109/pMW218) [µg/mL] | MIC [1] [µg/mL] | MIC [2] [µg/mL] | MIC [3] [µg/mL] | MIC (S. marcescens TH-0447) [µg/mL] | MIC (S. marcescens GN6944) [µg/mL] | MIC (P. aeruginosa PAO1) [µg/mL] | MIC (P. aeruginosa PAO1/GN315) [µg/mL] | MIC (P. aeruginosa MSC17707) [µg/mL] | MIC (P. aeruginosa MSC01035) [µg/mL] | further results
1 | CN[C@@H]1[C@@H](O[C@H]2O[C@H](CO)[C@@H](NC(=N)N)[C@H](O)[C@H]2O)O[C@H]2C[C@@H](N)[C@@H](O[C@H]3[C@@H](O)[C@@H](O)[C@H](N)C[C@@H]3N)O[C@@H]2[C@@H]1O [Compound S1-j, 4″-deamino-5-epi-4″-guanidinoapramycin] | 2 (≈ 3.44 µM) | 1 (≈ 1.72 µM) | 4 (≈ 6.88 µM) | 8 (≈ 13.8 µM) | 0.5 (≈ 0.86 µM) | 1 (≈ 1.72 µM) | – | – | – | – | – | – | – | – | – | – | – | – | – | – | minimal inhibitory concentration (MIC) [2]: 1 µg/mL (≈ 1.72 µM); minimal inhibitory concentration (MIC) [3]: 4 µg/mL (≈ 6.88 µM); minimal inhibitory concentration (MIC) (S. marcescens TH-0447): 4 µg/mL (≈ 6.88 µM); minimal inhibitory concentration (MIC) (S. marcescens GN6944): 4 µg/mL (≈ 6.88 µM); minimal inhibitory concentration (MIC) (P. aeruginosa PAO1): 2 µg/mL (≈ 3.44 µM); minimal inhibitory concentration (MIC) (P. aeruginosa PAO1/GN315): 4 µg/mL (≈ 6.88 µM); minimal inhibitory concentration (MIC) (P. aeruginosa MSC17707): 4 µg/mL (≈ 6.88 µM); minimal inhibitory concentration (MIC) (P. aeruginosa MSC01035): 4 µg/mL (≈ 6.88 µM)
2 | CNC1C(O[C@H]2OC(CO)[C@@H](NC(=N)N)[C@H](O)C2O)O[C@H]2CC(N)[C@@H](O[C@@H]3C(N)C[C@@H](N)C(O)[C@H]3F)OC2C1O (stereo partly drawn) [Compound S1-k, 4″-deamino-5-deoxy-5-epi-5-fluoro-4″-guanidinoapramycin] | – | – | – | – | – | – | 1 (≈ 1.71 µM) | 1 (≈ 1.71 µM) | 4 (≈ 6.85 µM) | 16 (≈ 27.4 µM) | 0.5 (≈ 0.857 µM) | 1 (≈ 1.71 µM) | 1 (≈ 1.71 µM) | 8 (≈ 13.7 µM) | 8 (≈ 13.7 µM) | 4 (≈ 6.85 µM) | 8 (≈ 13.7 µM) | 8 (≈ 13.7 µM) | 8 (≈ 13.7 µM) | 8 (≈ 13.7 µM) | –
3 | CNC1C(CO)OC(OC2OC3CC(N)C(OC4C(N)CC(N)CC4O)OC3C(O)C2NC)C(O)C1O (stereo not drawn) [Compound S1-l, 6-deoxy-5-epi-4″-N-methylapramycin] | 2 (≈ 3.72 µM) | 1 (≈ 1.86 µM) | 8 (≈ 14.9 µM) | 16 (≈ 29.8 µM) | 0.5 (≈ 0.93 µM) | 1 (≈ 1.86 µM) | – | – | – | – | – | – | – | – | – | – | – | – | – | – | minimal inhibitory concentration (MIC) [2]: 0.5 µg/mL (≈ 0.93 µM); minimal inhibitory concentration (MIC) [3]: 4 µg/mL (≈ 7.44 µM); minimal inhibitory concentration (MIC) (S. marcescens TH-0447): 4 µg/mL (≈ 7.44 µM); minimal inhibitory concentration (MIC) (S. marcescens GN6944): 2 µg/mL (≈ 3.72 µM); minimal inhibitory concentration (MIC) (P. aeruginosa PAO1): 4 µg/mL (≈ 7.44 µM); minimal inhibitory concentration (MIC) (P. aeruginosa PAO1/GN315): 4 µg/mL (≈ 7.44 µM); minimal inhibitory concentration (MIC) (P. aeruginosa MSC17707): 4 µg/mL (≈ 7.44 µM); minimal inhibitory concentration (MIC) (P. aeruginosa MSC01035): 4 µg/mL (≈ 7.44 µM)
4 | CNC1C(O[C@H]2OC(CO)[C@@H](NCCN)[C@H](O)C2O)O[C@H]2CC(N)[C@@H](O[C@@H]3C(N)C[C@@H](N)C[C@H]3O)OC2C1O (stereo partly shown) [Compound S1-m, 6-deoxy-4″-N-(2-aminoethyl)-5-epiapramycin] | – | – | – | – | – | – | 2 (≈ 3.53 µM) | 2 (≈ 3.53 µM) | 8 (≈ 14.1 µM) | 16 (≈ 28.2 µM) | 1 (≈ 1.76 µM) | 2 (≈ 3.53 µM) | 1 (≈ 1.76 µM) | 4 (≈ 7.06 µM) | 4 (≈ 7.06 µM) | 8 (≈ 14.1 µM) | 4 (≈ 7.06 µM) | 8 (≈ 14.1 µM) | 8 (≈ 14.1 µM) | 8 (≈ 14.1 µM) | –
5 | CNC1C(O[C@H]2OC(CO)[C@@H](NCCCN)[C@H](O)C2O)O[C@H]2CC(N)[C@@H](O[C@@H]3C(N)C[C@@H](N)C[C@H]3O)OC2C1O (stereo partly shown) [Compound S1-n, 6-deoxy-4″-N-(3-aminopropyl)-5-epiapramycin] | – | – | – | – | – | – | 2 (≈ 3.44 µM) | 2 (≈ 3.44 µM) | 8 (≈ 13.8 µM) | 8 (≈ 13.8 µM) | 1 (≈ 1.72 µM) | 1 (≈ 1.72 µM) | 1 (≈ 1.72 µM) | 4 (≈ 6.89 µM) | 4 (≈ 6.89 µM) | 4 (≈ 6.89 µM) | 4 (≈ 6.89 µM) | 4 (≈ 6.89 µM) | 8 (≈ 13.8 µM) | 4 (≈ 6.89 µM) | –
